For data set [1], the target named is human SSTR1 (Homo sapiens (Human), UniProt P30872). Nature of the data set: Radioligand binding assay, human SSTR1. The source says: (§1) Radioligand Binding Assays
(§2) Method description for binding assays with human Somatostatin receptors by use of CHO cell membranes expressing recombinant human SSTR1 or human SSTR2 or human SSTR3 or human SSTR4 or human SSTR5
(§3) Receptor binding assays refer to a technique in which labeled receptor ligands are used to detect binding to a receptor. In competition experiments test compounds, which are not labeled, compete with the binding side of a labeled ligand. The displacement of the labeled ligand by the test compound leads to a decreased signal.
(§4) For the binding experiments 200 μL of membrane homogenate from one of the following protein amounts is used: hSSTR1 (40 μg/well); hSSTR2 (25 μg/well); hSSTR3 (1.5 μg/well); hSSTR4 (0.5 μg/well); hSSTR5 (25 μg/well). The homogenate is incubated with 0.05 nM of radioligand ([3-125I-Tyr]-Somatostatin-(1-14)) in addition to increasing concentrations of a test compound or vehicle (100% binding) in a total volume of 250 μL using a Hepes buffer (10 mM, EDTA 1 mM, MgCl2 5 mM, pH7.6, BSA 0.5%, Bacitracin 0.003%, DMSO 1% for 180 min at room temperature. The incubation is terminated by filtration with ice cold NaCl 0.9% through polyethyleneimine treated (0.3%) GF/B glass fiber filters using a cell harvester. The protein-bound radioactivity is measured in a suitable reader. The non-specific binding is defined as radioactivity bound in the presence of 1 μM Somatostatin-14 during the incubation period.
(§5) The analysis of the concentration-binding curves is performed by computer-assisted nonlinear least square curve fitting method using the model of one receptor binding site.

For data set [2], the target named is human SSTR5 (Homo sapiens (Human), UniProt P35346). The data set can be described thus: Radioligand binding assay, human SSTR5.
Chain of human SSTR5 (P35346 whole entry): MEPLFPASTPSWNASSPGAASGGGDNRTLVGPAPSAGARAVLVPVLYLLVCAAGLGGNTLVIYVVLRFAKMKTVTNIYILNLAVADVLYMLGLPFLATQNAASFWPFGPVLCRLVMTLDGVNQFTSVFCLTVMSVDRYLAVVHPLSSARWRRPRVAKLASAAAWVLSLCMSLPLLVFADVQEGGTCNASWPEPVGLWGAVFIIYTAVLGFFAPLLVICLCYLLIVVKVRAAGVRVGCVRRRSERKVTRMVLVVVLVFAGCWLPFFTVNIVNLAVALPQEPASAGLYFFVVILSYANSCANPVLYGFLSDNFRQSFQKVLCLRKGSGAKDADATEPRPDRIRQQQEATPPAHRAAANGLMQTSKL
Description: as §1, §2, §3, §4, §5

For data set [3], the target named is human SSTR4 (Homo sapiens (Human), UniProt P31391). The data set can be described thus: Radioligand binding assay, human SSTR4.
Chain of human SSTR4 (P31391 whole entry): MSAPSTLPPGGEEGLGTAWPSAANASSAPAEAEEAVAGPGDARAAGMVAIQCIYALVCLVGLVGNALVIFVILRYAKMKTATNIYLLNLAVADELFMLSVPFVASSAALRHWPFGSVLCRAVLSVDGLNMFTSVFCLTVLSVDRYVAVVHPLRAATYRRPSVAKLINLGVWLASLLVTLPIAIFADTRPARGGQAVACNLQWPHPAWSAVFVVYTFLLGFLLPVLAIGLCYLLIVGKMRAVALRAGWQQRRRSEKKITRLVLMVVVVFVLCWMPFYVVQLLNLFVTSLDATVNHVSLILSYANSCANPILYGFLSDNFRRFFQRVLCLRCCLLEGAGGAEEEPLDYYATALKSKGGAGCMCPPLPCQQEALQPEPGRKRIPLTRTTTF
Description: as §1, §2, §3, §4, §5

Data set [4] concerns the target human SSTR2 (Homo sapiens (Human), UniProt P30874). Nature of the data set: Radioligand binding assay, human SSTR2.
Description: as §1, §2, §3, §4, §5

The target of data set [5] is human Somatostatin 4 receptor (SSTR4) (Homo sapiens (Human), UniProt P31391). The data set can be described thus: cAMP assay with human Somatostatin 4 receptor. The settings on record: hSSTR4 expressing H4 cells, inhibition of Forskolin-stimulated cAMP; read-out: SSTR4 agonism EC50. Format: cell-based.
Chain of human Somatostatin 4 receptor (SSTR4) (P31391 whole entry): as above
The nature of data set [6]: Metabolic stability in human liver microsomes. Format: in vitro ADME. The settings on record: pooled human liver microsomes, 37° C., 1 μM test compound, NADPH; for half-life at 1 μM: pH 7.6, read-out: Half-life t1/2. On the procedure: The metabolic stability of the compounds according to the invention may be investigated as follows:
The metabolic degradation of the test compound is assayed at 37° C. with pooled human liver microsomes. The final incubation volume of 100 μl per time point contains TRIS buffer pH 7.6 at room temperature (0.1 M), magnesium chloride (5 mM), microsomal protein (1 mg/mL) and the test compound at a final concentration of 1 μM. Following a short preincubation period at 37° C., the reactions are initiated by addition of beta-nicotinamide adenine dinucleotide phosphate, reduced form (NADPH, 1 mM), and terminated by transferring an aliquot into solvent after different time points. After centrifugation (10000 g, 5 min), an aliquot of the supernatant is assayed by LC-MS/MS for the amount of parent compound. The half-life is determined by the slope of the semi-logarithmic plot of the concentration-time profile.
For orientation: Microsomes from liver hold many membrane-bound enzymes, among them those of drug oxidation.

The target in data set [7] is human SSTR3 (Homo sapiens (Human), UniProt P32745). The data set can be described thus: Radioligand binding assay, human SSTR3.
Chain of human SSTR3 (P32745 whole entry): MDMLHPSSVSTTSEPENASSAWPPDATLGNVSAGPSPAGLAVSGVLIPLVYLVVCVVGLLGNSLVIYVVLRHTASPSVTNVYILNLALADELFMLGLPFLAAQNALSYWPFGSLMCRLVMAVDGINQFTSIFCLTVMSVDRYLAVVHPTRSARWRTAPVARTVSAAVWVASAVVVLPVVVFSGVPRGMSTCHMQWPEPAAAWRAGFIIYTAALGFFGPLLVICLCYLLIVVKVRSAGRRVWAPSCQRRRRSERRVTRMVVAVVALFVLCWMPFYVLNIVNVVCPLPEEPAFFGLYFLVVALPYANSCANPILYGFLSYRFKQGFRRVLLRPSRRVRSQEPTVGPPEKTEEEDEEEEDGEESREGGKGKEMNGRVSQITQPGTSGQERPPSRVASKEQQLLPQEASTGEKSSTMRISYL
Description: as §1, §2, §3, §4, §5

Chain of human SSTR2 (P30874 whole entry): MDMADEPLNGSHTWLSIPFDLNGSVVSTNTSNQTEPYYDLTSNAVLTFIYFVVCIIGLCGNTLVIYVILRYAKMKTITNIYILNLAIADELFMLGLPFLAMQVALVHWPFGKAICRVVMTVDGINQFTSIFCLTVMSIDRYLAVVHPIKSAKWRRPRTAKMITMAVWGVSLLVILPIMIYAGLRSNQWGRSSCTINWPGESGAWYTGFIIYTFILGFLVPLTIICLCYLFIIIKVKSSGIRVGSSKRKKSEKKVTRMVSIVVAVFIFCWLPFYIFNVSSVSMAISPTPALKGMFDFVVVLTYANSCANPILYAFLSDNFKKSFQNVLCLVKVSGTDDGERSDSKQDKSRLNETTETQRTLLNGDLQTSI
Chain of human SSTR1 (P30872 whole entry): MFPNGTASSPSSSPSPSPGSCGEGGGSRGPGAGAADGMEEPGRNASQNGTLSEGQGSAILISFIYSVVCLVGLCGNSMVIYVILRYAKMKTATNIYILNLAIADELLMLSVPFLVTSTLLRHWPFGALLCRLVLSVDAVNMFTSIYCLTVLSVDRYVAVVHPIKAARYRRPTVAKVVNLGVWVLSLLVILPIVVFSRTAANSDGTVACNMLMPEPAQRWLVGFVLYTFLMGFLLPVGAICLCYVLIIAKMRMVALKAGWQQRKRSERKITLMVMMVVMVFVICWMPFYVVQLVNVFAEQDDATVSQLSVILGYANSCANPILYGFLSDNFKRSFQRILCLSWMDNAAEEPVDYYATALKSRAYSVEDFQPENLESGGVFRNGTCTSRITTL

On to `CC(C)(NC(=O)c1cccc2c1OCCNC2)c1ccnc2ccccc12` [Example 6], for which the Ki (in general, the dissociation constant of the complex between target and ligand, obtained from inhibition or displacement) stood at 9.01 µM in data set [1]; 9.86 µM in data set [2]; 0.104 µM in data set [3]; 9.63 µM in data set [4]; 8.71 µM in data set [7]. Also, the EC50 (usually the concentration needed to bring the measured effect to its halfway point) in data set [5] is 0.0084 µM. Moreover, the “Half-life t1/2” value in data set [6] amounted to 2.17 h.

As for `Cn1nc(C(C)(C)NC(=O)c2cccc3c2OCCNC3)c2ccccc21` [Example 18], the Ki in data set [1] came to 7.82 µM; in data set [2], 9.86 µM; in data set [3] it was 0.0395 µM; in data set [4], 9.63 µM; in data set [7], 8.71 µM. The EC50 in data set [5] turned out to be 0.0044 µM. In addition, the half-life at 1 μM in data set [6] is 1.22 h.

As for `Cn1nc(C(C)(C)NC(=O)c2nccc3c2OCCNC3)c2ccccc21` [Example 19], the Ki in data set [1] was 9.45 µM; in data set [2] it was 9.75 µM; in data set [3] it was 0.613 µM; in data set [4], 9.6 µM; in data set [7], 8.62 µM. Besides, the EC50 in data set [5] is 0.0146 µM. Also, the “Half-life t1/2” value in data set [6] stood at 2.17 h.

As for `Cn1nc(C(C)(C)NC(=O)c2ccnc3c2OCCNC3)c2ccccc21` [Example 20], the Ki amounted to 9.45 µM in data set [1]; 9.75 µM in data set [2]; 0.574 µM in data set [3]; 9.6 µM in data set [4]; 8.62 µM in data set [7]. Also, the EC50 in data set [5] came out at 0.0175 µM. Further, the half-life at 1 μM in data set [6] was above 2.17 h.

Consider `Cc1nnc(C(C)(C)NC(=O)c2cccc3c2OCCNC3)c2ccccc12` [Example 26], for which the Ki in data set [1] was 9.45 µM; in data set [2], 9.75 µM; in data set [3], 0.065 µM; in data set [4], 9.6 µM; in data set [7], 8.62 µM. The concentration giving a half-maximal response (EC50) in data set [5] stood at 0.0025 µM. Further, in data set [6], the half-life at 1 μM was above 2.17 h.

For the compound `Cc1cccc2c(C(C)(C)NC(=O)c3cccc4c3OCCNC4)n[nH]c12` [Example 33], the Ki was determined as 9.45 µM in data set [1]; 9.75 µM in data set [2]; 0.0217 µM in data set [3]; 9.6 µM in data set [4]; 8.62 µM in data set [7]. Also, the EC50 in data set [5] turned out to be 0.0008 µM. The half-life at 1 μM in data set [6] came out at 1.65 h.

Regarding `Cn1nc(C(C)(C)NC(=O)c2cccc3c2OCCNC3)c2cccc(F)c21` [Example 39], the inhibition constant Ki in data set [1] came to 9.01 µM; in data set [2], 9.86 µM; in data set [3] it was 0.0291 µM; in data set [4], 9.63 µM; in data set [7], 8.71 µM. Further, the EC50 in data set [5] amounted to 0.0021 µM. In addition, the half-life at 1 μM in data set [6] is 0.85 h.

Take `Cc1cccc2c(C(C)(C)NC(=O)c3cncc4c3OCCNC4)nn(C)c12` [Example 42]: the inhibition constant Ki in data set [1] came to 9.45 µM; in data set [2], 9.75 µM; in data set [3], 0.532 µM; in data set [4], 9.6 µM; in data set [7], 8.62 µM. In addition, the EC50 in data set [5] is 0.0158 µM. The half-life at 1 μM in data set [6] was above 2.17 h.

`Cc1cccn2c(C(C)(C)NC(=O)c3cccc4c3OCCNC4)ncc12` [Example 47]: the Ki in data set [1] came to 9.01 µM; in data set [2], 9.86 µM; in data set [3] it was 0.0532 µM; in data set [4], 9.63 µM; in data set [7], 8.71 µM. Also, in data set [5], the EC50 was determined as 0.002 µM. In data set [6], the half-life at 1 μM was above 2.17 h.

For the origin of these results see patent publication US10183940B2, “Aryl and heteroaryl-fused tetrahydro-1,4-oxazepine amides as somatostatin receptor subtype 4 (SSTR4) agonists” (Boehringer Ingelheim International GmbH, priority 2014, dated 2019).
